SMILES strings stand for the structures.

Test [1] has as its system Aβ1-42. Put plainly: Measurement of Aβ1-42 in culture medium of 7W WT APP751 CHO cells by ELISA. It is filed as cell-based, Chinese hamster. The note with it: for Aβ1-42 (% of control): CHO cells that overexpress APP751, zero = below the detection limit of the assay; for activity at 5 µM: Cricetulus griseus, Table 1, 5 μM test compound, CHO cells stably transfected with human APP751, culture medium, ELISA, control DMSO, 0 = no detectable amount, read-out: Aβ1-42 (% of control).

Test [2] has as its system Aβ1-40. Put plainly: Measurement of Aβ1-40 in culture medium of 7W WT APP751 CHO cells by ELISA. The test is classed as cell-based, Chinese hamster. The note with it: for Aβ1-40 (% of control): CHO cells that overexpress APP751, zero = below the detection limit of the assay; for activity at 5 µM: Cricetulus griseus, Table 1, 5 μM test compound, CHO cells stably transfected with human APP751, culture medium, ELISA, control DMSO, 0 = no detectable amount. (An ELISA detects its analyte on a solid surface through an enzyme-linked reagent.)
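Also: 5 µM test compound but RI-coded compounds at 10 µM for 24 hours.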

For `CCOC(=O)C1=C(N)n2c(s/c(=C\c3ccccc3OC)c2=O)=C(S(=O)(=O)c2ccccc2)C1c1ccccc1OC` (stereo not shown) [ST011325, ethyl 5-amino-7-(2-methoxyphenyl)-2-[(2-methoxyphenyl)methylene[-3-oxo-8-(phenylsulfonyl)-4,7-dihydro-1,3-thiazolidino[3,2-a]pyridine-6-carboxylate], the “Aβ1-42 (% of control)” value in test [1] is recorded as 99 % of control. In addition, the “Aβ1-40 (% of control)” value in test [2] is 62.35 % of control.

Turning to `CCOC(=O)C1=C(N)n2c(s/c(=C\c3ccc(C(C)C)cc3)c2=O)=C(S(=O)(=O)c2ccccc2)C1c1ccc(C(C)C)cc1` (stereo not shown) [ST011326], the “Aβ1-42 (% of control)” value in test [1] is 72.95 % of control. Besides, in test [2], the “Aβ1-40 (% of control)” value was 54.94 % of control.

`C=CCOC(=O)C1=C(C)NC(S)=C(C#N)C1c1cccnc1` (stereo not shown) [ST011596, prop-2-enyl 5-cyano-2-methyl-4-(3-pyridyl)-6-sulfanyl-1,4-dihydropyridine-3-carboxylate]: the “Aβ1-42 (% of control)” value in test [1] was 86.14 % of control. For the same compound, the “Aβ1-40 (% of control)” value in test [2] is given as 66.77 % of control.

Regarding `CC(=O)C1=C(C)NC(S)=C(C#N)C1c1ccccc1[N+](=O)[O-]` (stereo not shown) [ST011628, 5-acetyl-6-methyl-4-(2-nitrophenyl)-2-sulfanyl-1,4-dihydropyridine-3-carbonitrile], in test [1], the “Aβ1-42 (% of control)” value is recorded as 76.9 % of control. For the same compound, the “Aβ1-40 (% of control)” value in test [2] is given as 74.07 % of control.

In the case of `CCOC(=O)C1=C(N)n2c(s/c(=C/c3ccc(C(C)C)cc3)c2=O)=C(C(=O)OCC)C1c1ccc(C(C)C)cc1` (stereo not shown) [ST011764, ethyl 5-amino-6-(ethoxycarbonyl)-7-[4-(methylethyl)phenyl]-2-{[4-(methylethyl)phenyl]methylene}-3-oxo-4,7-dihydro-1,3-thiazolidino[3,2-a]pyridine-8-carboxylate], the “Aβ1-42 (% of control)” value in test [1] is 70.37 % of control. Further, in test [2], the “Aβ1-40 (% of control)” value was 83.4 % of control.

As for `CCOC(=O)C1=C(N)n2c(s/c(=C/c3ccco3)c2=O)=C(C(=O)OCC)C1c1ccco1` (stereo not shown) [ST011765, ethyl 5-amino-6-(ethoxycarbonyl)-7-(2-furyl)-2-(2-furylmethylene)-3-oxo-4,7-dihydro-1,3-thiazolidino[3,2-a]pyridine-8-carboxylate], the “Aβ1-42 (% of control)” value in test [1] is on record as 29.42 % of control. For the same compound, the “Aβ1-40 (% of control)” value in test [2] is listed as 42.57 % of control.

For `CCOC(=O)C1=c2s/c(=C/c3ccc(C)s3)c(=O)n2C(N)=C(C#N)C1c1ccc(C)s1` (stereo not shown) [ST011766], the “Aβ1-42 (% of control)” value in test [1] is reported as 9.558 % of control. For the same compound, the “Aβ1-40 (% of control)” value in test [2] is given as 21.1 % of control.

`COC(=O)C1=C(N)n2c(s/c(=C/c3cccnc3)c2=O)=C(C(=O)OC)C1c1cccnc1` (stereo not shown) [ST011768, methyl 5-amino-6-(methoxycarbonyl)-3-oxo-7-(3-pyridyl)-2-(3-pyridylmethylene)-4,7-dihydro-1,3-thiazolidino[3,2-a]pyridine-8-carboxylate]: in test [1], the “Aβ1-42 (% of control)” value is 97.83 % of control. In addition, the “Aβ1-40 (% of control)” value in test [2] is 42.71 % of control.

For `COC(=O)C1=C(N)n2c(s/c(=C/c3ccc(Cl)cc3Cl)c2=O)=C(C(=O)OC)C1c1ccc(Cl)cc1Cl` (stereo not shown) [ST011769, methyl 5-amino-7-(2,4-dichlorophenyl)-2-[(2,4-dichlorophenyl)methylene]-6-(methoxycarbonyl)-3-oxo-4,7-dihydro-1,3-thiazolidino[3,2-a]pyridine-8-carboxylate], the “Aβ1-42 (% of control)” value in test [1] was 71.56 % of control. The “Aβ1-40 (% of control)” value in test [2] is recorded as 42.3 % of control.

`CCN(CC)c1ccc(C2C(C(=O)OCc3ccccc3)=C(C)NC3=C2C(=O)CC(C)(C)C3)cc1` (stereo not shown) [ST013049, phenylmethyl 4-[4-(diethylamino)phenyl]-2,7,7-trimethyl-5-oxo-1,4,6,7,8-pentahydroquinoline-3-carboxylate]: the activity at 5 µM in test [1] was 94.1%; in test [2], 27.8%.

Turning to `CC1=C(C(=O)OCc2ccccc2)C(c2cc3c(cc2[NH+]([O-])O)OCO3)C2=C(CC(C)(C)CC2=O)N1` (stereo not shown) [ST013052, phenylmethyl 2,7,7-trimethyl-4-(6-nitro(2H-benzo[d]1,3-dioxolan-5-yl))-5-oxo-1,4,6,7,8-pentahydroquinoline-3-carboxylate], the results for the activity at 5 µM in test [1] and in test [2] were 72.4% and 68.8%, respectively.

Take `CCCCCOC(=O)C1=C(C)NC2=C(C(=O)CC(C)(C)C2)C1c1ccc(Cl)cc1` (stereo not shown) [ST013054, pentyl 4-(4-chlorophenyl)-2,7,7-trimethyl-5-oxo-1,4,6,7,8-pentahydroquinoline-3-carboxylate]: the activity at 5 µM stood at 8.36% in test [1] and 0% in test [2].

Regarding `COC(=O)C1=C(C)NC2=C(C(=O)CC(C)(C)C2)C1c1cccnc1` (stereo not shown) [ST013059, methyl 2,7,7-trimethyl-5-oxo-4-(3-pyridyl)-1,4,6,7,8-pentahydroquinoline-3-carboxylate], the activity at 5 µM amounted to 76.1% in test [1] and 26.7% in test [2].

As to `CCOC(=O)C1=C(C)NC2=C(C(=O)CC(C)(C)C2)C1c1cc2c(cc1[NH+]([O-])O)OCO2` (stereo not shown) [ST013060, ethyl 2,7,7-trimethyl-4-(6-nitro(2H-benzo[d]1,3-dioxolan-5-yl))-5-oxo-1,4,6,7,8-pentahydroquinoline-3-carboxylate], the results for the activity at 5 µM in test [1] and in test [2] were 99.4% and 32.7%, respectively.

Consider `CCOC(=O)C1=C(C)NC2=C(C(=O)CCC2)C1c1ccc(N(C)C)cc1` (stereo not shown) [ST013066, ethyl 4-[4-(dimethylamino)phenyl]-2-methyl-5-oxo-1,4,6,7,8-pentahydroquinoline-3-carboxylate], for which the results for the activity at 5 µM in test [1] and in test [2] were 96.7% and 68.4%, respectively.

Regarding `CCOC(=O)C1=C(C)NC2=C(C(=O)CCC2)C1c1cccnc1` (stereo not shown) [ST013070, ethyl 2-methyl-5-oxo-4-(3-pyridyl)-1,4,6,7,8-pentahydroquinoline-3-carboxylate], the activity at 5 µM is 82.4% in test [1] and 34% in test [2].

Take `COC(=O)C1=C(C)NC2=C(C(=O)CCC2)C1c1cc(OC)ccc1OC` (stereo not shown) [ST013073, methyl 4-(2,5-dimethoxyphenyl)-2-methyl-5-oxo-1,4,6,7,8-pentahydroquinoline-3-carboxylate]: the activity at 5 µM in test [1] was 93.2%; in test [2], 49.5%.

For the compound `CC1=C(C(=O)OC(C)C)C(c2cccnc2)C2=C(CCCC2=O)N1` (stereo not shown) [ST013077, methylethyl 2-methyl-5-oxo-4-(3-pyridyl)-1,4,6,7,8-pentahydroquinoline-3-carboxylate], the activity at 5 µM was 97.8% in test [1] and 27.4% in test [2].

As to `CC1=C(C(=O)OC2CCCC2)C(c2ccc(Cl)cc2)C2=C(CC(C)(C)CC2=O)N1` (stereo not shown) [ST013081, cyclopentyl 4-(4-chlorophenyl)-2,7,7-trimethyl-5-oxo-1,4,6,7,8-pentahydroquinoline-3-carboxylate], the results for the activity at 5 µM in test [1] and in test [2] were 0.188% and 0%, respectively.

For the compound `CCN(CC)c1ccc(C2C(C(=O)OC3CCCC3)=C(C)NC3=C2C(=O)CC(C)(C)C3)cc1` (stereo not shown) [ST013083, cyclopentyl 4-[4-(diethylamino)phenyl]-2,7,7-trimethyl-5-oxo-1,4,6,7,8-pentahydroquinoline-3-carboxylate], the values for the activity at 5 µM in test [1] and in test [2] were 91.6% and 0%, respectively.

These data come from patent US20100119599A1 (ARCHER PHARMACEUTICALS, INC., priority 2006, published 2010).
